Experimental data published in patent US20250197428A1, “INHIBITORS OF KIF18A AND USES THEREOF” (ACCENT THERAPEUTICS, INC., priority 2022, published 2025).
Where two headings read alike, the source gives them in different places.

Experiments:
[1] = Caco-2 permeation assay, bidirectional permeability; assay type: in vitro ADME; conditions: human, Caco-2, pH 7.4, 5 μM, Papp(B-A)/Papp(A-B)
How it was run: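 Bidirectional A→B and B→A transport of 5 μM compound in HBSS (10 mM HEPES, pH 7.4), receiver containing 2% BSA, 2 h at 37 °C on 14-day monolayers. Papp from LC-MS/MS peak areas; efflux ratio Papp(B-A)/Papp(A-B), plus recovery. Lucifer Yellow leakage <1% required for monolayer acceptance.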

[2] = Tolerability (body weight) in 28 day OVCAR-3 xenograft study; assay type: in vivo; conditions: all concentrations dosed, 28 day treatment
[3] = In vivo pharmacokinetic evaluation in mouse; design: species or system female balb/c nude mice
KIF18A = KIF18A (Homo sapiens (Human), UniProt Q8NI77); test: KIF18A Biochemical Assay (ATPase, ADP-Glo)
[4] = Bone marrow concentration in 28 day OVCAR-3 xenograft study; assay type: in vivo, mice; conditions: NOD SCID, mouse, 28 day study; for concentration at 6 h: read-out: Bone marrow concentration at 6 h post-last dose; for concentration at 24 h: read-out: Bone marrow concentration at 24 h post-last dose
Method: On Day 28, tissues were collected from animals. About 30-60 μL of whole blood was collected into tubes containing EDTA anticoagulant, and plasma was harvested by centrifugation at 4,000 g×5 min and stored at −80° C. until analysis. Plasma analysis followed the same protocol as for the Day 1 plasma analysis. Additionally, the femurs of the mice were cut and put in pre-weighed tubes. The bone marrow was harvested by centriguation at 8,000 g×15 min. Then, the total weight of both the bone marrow and the tube was recorded. The bone marrow was stored at −80° C. until analysis.
Samples were collected from animals 6 h after the last dose of compound and at 24 h after the last dose of compound.

KIF18A, sequence (Q8NI77 1-367): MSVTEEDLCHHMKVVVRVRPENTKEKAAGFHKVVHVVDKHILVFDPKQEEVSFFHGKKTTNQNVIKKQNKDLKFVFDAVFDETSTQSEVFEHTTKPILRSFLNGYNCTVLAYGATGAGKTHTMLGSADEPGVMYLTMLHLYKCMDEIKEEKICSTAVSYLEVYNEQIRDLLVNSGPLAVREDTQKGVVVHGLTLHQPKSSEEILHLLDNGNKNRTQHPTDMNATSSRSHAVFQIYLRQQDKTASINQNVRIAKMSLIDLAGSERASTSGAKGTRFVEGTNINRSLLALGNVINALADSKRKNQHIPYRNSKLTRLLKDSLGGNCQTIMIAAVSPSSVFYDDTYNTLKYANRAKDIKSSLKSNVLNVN
KIF18A, sequence (P02550 whole entry partner): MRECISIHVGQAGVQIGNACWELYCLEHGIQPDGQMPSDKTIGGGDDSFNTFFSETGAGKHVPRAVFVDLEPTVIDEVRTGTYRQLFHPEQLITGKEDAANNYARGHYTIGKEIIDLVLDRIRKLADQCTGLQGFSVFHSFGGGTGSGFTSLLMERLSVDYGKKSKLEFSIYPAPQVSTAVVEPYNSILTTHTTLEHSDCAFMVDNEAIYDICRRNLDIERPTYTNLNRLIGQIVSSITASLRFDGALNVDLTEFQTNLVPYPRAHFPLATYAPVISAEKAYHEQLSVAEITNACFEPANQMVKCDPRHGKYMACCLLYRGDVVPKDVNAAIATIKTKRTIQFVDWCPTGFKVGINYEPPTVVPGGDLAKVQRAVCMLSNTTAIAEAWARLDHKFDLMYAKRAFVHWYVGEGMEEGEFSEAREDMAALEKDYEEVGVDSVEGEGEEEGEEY
KIF18A, sequence (P02554 whole entry partner): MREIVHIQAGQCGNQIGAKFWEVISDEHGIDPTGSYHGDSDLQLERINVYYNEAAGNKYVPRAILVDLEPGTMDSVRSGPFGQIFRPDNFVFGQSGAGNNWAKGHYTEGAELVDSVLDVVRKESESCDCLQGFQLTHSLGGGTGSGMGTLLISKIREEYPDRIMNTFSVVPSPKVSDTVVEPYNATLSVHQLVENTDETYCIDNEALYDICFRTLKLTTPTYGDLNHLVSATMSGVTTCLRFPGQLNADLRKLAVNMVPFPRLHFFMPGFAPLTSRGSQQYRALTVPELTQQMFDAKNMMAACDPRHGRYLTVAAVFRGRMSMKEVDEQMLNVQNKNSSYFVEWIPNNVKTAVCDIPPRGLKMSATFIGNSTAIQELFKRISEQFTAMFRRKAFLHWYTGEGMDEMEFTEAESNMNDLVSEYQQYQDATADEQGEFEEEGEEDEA

SMILES: Cc1cc(NC(=O)c2ccc(NS(=O)(=O)CCO)cc2N2CC[C@@]3(C(F)F)C[C@H]3C2)nc(N2CCC(F)(F)CC2)n1 (single isomer, unassigned) [Example 29b]
- efflux ratio at 2 h, 5 μM [1]: ≥ 10
- Tolerability based on body weight [2]: well tolerated
- IV Clearance ([3]; 3 mg/kg IV): 3.3 mL/ming/kg
- Vd ([3]; female, balb/c nude, plasma, 3 mg/kg IV, read-out: IV Vss): 0.97 L/kg
- Cmax ([3]; female, balb/c nude, plasma, 10 mg/kg PO): 4700 ng/mL
- half-life ([3]; female, balb/c nude, plasma, 10 mg/kg PO, read-out: PO T1/2 (converted)): 3.7 h
- IC50 (KIF18A): < 100 nM
- concentration at 6 h ([4]; 10 mg/kg QD oral): 2800 ng/g
- concentration at 24 h ([4]; 10 mg/kg QD oral): 210 ng/g
- concentration at 6 h ([4]; 30 mg/kg QD oral): 10500 ng/g
- concentration at 24 h ([4]; 30 mg/kg QD oral): 900 ng/g
